Patent US20240043427A1 (Gilead Sciences, Inc., priority 2020, published 2024)

Experiments:
CD73 [1] = target: T1, CD73 (Homo sapiens (Human), UniProt P21589); type: biochemical; conditions: 1 mM NaH2PO4 in enzyme buffer, CD73 0.3 nM, AMP 15 uM
CD73 [2] = target: T1, CD73; experiment: MDA-MB-231 Cell Based CD73 Activity Assay (DMEM); conditions: MDA-MB-231-GFP cells, DMEM medium with 10% human plasma, 200 uM AMP

T1 sequence (P21589 27-574): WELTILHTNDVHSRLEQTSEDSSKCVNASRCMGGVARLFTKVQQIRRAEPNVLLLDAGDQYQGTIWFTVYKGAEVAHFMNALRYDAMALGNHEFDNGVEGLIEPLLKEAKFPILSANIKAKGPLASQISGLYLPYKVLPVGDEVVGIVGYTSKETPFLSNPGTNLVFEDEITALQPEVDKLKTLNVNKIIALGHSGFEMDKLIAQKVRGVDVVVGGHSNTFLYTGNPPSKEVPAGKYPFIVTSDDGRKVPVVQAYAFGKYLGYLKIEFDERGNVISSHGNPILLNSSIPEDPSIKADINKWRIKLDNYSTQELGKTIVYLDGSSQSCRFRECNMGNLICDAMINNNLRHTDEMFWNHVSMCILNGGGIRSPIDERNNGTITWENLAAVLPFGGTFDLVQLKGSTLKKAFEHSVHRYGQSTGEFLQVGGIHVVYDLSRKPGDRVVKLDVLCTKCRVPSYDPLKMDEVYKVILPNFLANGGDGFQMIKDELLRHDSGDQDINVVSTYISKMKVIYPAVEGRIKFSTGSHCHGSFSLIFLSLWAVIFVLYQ

| Structure (SMILES) | IC50 (CD73 [1]) [nM] | EC50 (CD73 [2]) [nM] |
| --- | --- | --- |
| O=c1[nH]cc(-c2cc(NCCc3cccc(F)c3)c3nccn3n2)c(=O)[nH]1 [Example 492, 5-(8-((3-fluorophenethyl)amino)imidazo[1,2-b]pyridazin-6-yl)pyrimidine-2,4(1H,3H)-dione] | 25.6 | 58.4 |
| O=c1[nH]cc(-c2cc(NCCc3ccccc3F)c3nccn3n2)c(=O)[nH]1 [Example 493, 5-(8-((2-fluorophenethyl)amino)imidazo[1,2-b]pyridazin-6-yl)pyrimidine-2,4(1H,3H)-dione] | 194 | 837 |
| O=c1[nH]cc(-c2cc(NC[C@@H](F)c3ccccc3)c3nccn3n2)c(=O)[nH]1 [Example 494, (S)-5-(8-((2-fluoro-2-phenylethyl)amino)imidazo[1,2-b]pyridazin-6-yl)pyrimidine-2,4(1H,3H)-dione] | 102 | 291 |
| O=c1[nH]cc(-c2cc(NCCc3c[nH]c4ccc(Cl)cc34)c3nccn3n2)c(=O)[nH]1 [Example 495, 5-(8-((2-(5-chloro-1H-indol-3-yl)ethyl)amino)imidazo[1,2-b]pyridazin-6-yl)pyrimidine-2,4(1H,3H)-dione] | > 250 | 748 |
| O=c1[nH]cc(-c2cc(NCCc3ccc(F)cc3)c3nccn3n2)c(=O)[nH]1 [Example 496, 5-(8-((4-fluorophenethyl)amino)imidazo[1,2-b]pyridazin-6-yl)pyrimidine-2,4(1H,3H)-dione] | 64 | 154 |
| O=c1[nH]cc(-c2cc(NCCc3ccc(Cl)cc3)c3nccn3n2)c(=O)[nH]1 [Example 497, 5-(8-((4-chlorophenethyl)amino)imidazo[1,2-b]pyridazin-6-yl)pyrimidine-2,4(1H,3H)-dione] | 64.5 | 569 |
| O=c1[nH]cc(-c2cc(NCC(F)(F)c3ccccc3)c3nccn3n2)c(=O)[nH]1 [Example 498, 5-(8-((2,2-difluoro-2-phenylethyl)amino)imidazo[1,2-b]pyridazin-6-yl)pyrimidine-2,4(1H,3H)-dione] | 50.7 | 260 |

Other lines, results leading:

| IC50 (CD73 [1]) [nM] | EC50 (CD73 [2]) [nM] | Structure (SMILES) |
| --- | --- | --- |
| 163 | 501 | C[C@H](CNc1cc(-c2c[nH]c(=O)[nH]c2=O)nn2ccnc12)c1ccccc1 [Example 499, (S)-5-(8-((2-phenylpropyl)amino)imidazo[1,2-b]pyridazin-6-yl)pyrimidine-2,4(1H,3H)-dione] |
| 108 | 457 | C[C@@H](CNc1cc(-c2c[nH]c(=O)[nH]c2=O)nn2ccnc12)c1ccccc1 [Example 500, (R)-5-(8-((2-phenylpropyl)amino)imidazo[1,2-b]pyridazin-6-yl)pyrimidine-2,4(1H,3H)-dione] |
| 20.9 | 108 | O=c1[nH]cc(-c2cc(N3CC(F)(F)C4(CNC4)C3)c3nccn3n2)c(=O)[nH]1 [Example 501, 5-(8-(8,8-difluoro-2,6-diazaspiro[3.4]octan-6-yl)imidazo[1,2-b]pyridazin-6-yl)pyrimidine-2,4(1H,3H)-dione] |
| 9.06 | 44.4 | O=c1[nH]cc(-c2cc(N3CC(F)(F)C4(CN(Cc5cccc(F)c5)C4)C3)c3nccn3n2)c(=O)[nH]1 [Example 502, 5-(8-(8,8-difluoro-2-(3-fluorobenzyl)-2,6-diazaspiro[3.4]octan-6-yl)imidazo[1,2-b]pyridazin-6-yl)pyrimidine-2,4(1H,3H)-dione] |
| 5.22 | 5.47 | CC(=O)N1CC2(C1)CN(c1cc(-c3c[nH]c(=O)[nH]c3=O)nn3ccnc13)CC2(F)F [Example 503, 5-(8-(2-acetyl-8,8-difluoro-2,6-diazaspiro[3.4]octan-6-yl)imidazo[1,2-b]pyridazin-6-yl)pyrimidine-2,4(1H,3H)-dione] |
| 6.78 | 5.62 | COC(=O)N1CC2(C1)CN(c1cc(-c3c[nH]c(=O)[nH]c3=O)nn3ccnc13)CC2(F)F [Example 504, Methyl 6-(6-(2,4-dioxo-1,2,3,4-tetrahydropyrimidin-5-yl)imidazo[1,2-b]pyridazin-8-yl)-8,8-difluoro-2,6-diazaspiro[3.4]octane-2-carboxylate] |
